Measurements published in article PMC3996367, “Profiling of drugs and environmental chemicals for functional impairment of neural crest migration in a novel stem cell-based test battery” (Archives of Toxicology, 2014).
Where “and” joins values, the source holds several entries; their conditions need not be identical. Identical values can stand only once. Like-named read-outs stand apart in the source and are kept apart here.

Assays:
[1] = for Free conc. (FCC; free plasma concentration): calculated from CC and plasma protein binding
[2] = cited from earlier work; for Clinical conc. (CC; total/maximal plasma concentration): human plasma, literature data mining, ref per-compound studies in Fig. S4; for Plasma concentration range / Plasma concentration, average: ref Laske et al. (2009)
plasma proteins = conditions: cited from earlier work
[3] = test system: migration of hESC-derived neural crest cells (NCC); test: MINC assay (migration inhibition of neural crest cells, UKN2); conditions: 48 h, in a non-cytotoxic concentration range
[4] = head of Fig. S4 entry; compiled from in vivo/in vitro studies and simulations
[5] = cited from earlier work; for Geometric mean concentration in maternal serum: ref Eskenazi et al. (2013); for Average concentration in breast milk: ref Gascon et al. (2012)
fetal growth = test system: fetal growth; design: method as in Govarts et al. (2012); conditions: per 1 µg/l increase in cord serum PCB-153; ref Govarts et al. (2012); cited from earlier work
rats [6] = conditions: single oral dose to dams on gestational day 6, Wistar rat; ref Kuriyama et al. (2005); cited from earlier work
whole embryo culture = test system: whole embryo culture; design: method as in Piersma et al. (2008); conditions: ref Piersma et al. (2008); cited from earlier work
[7] = test system: embryonic stem cell differentiation; design: method as in de Jong et al. 2009; conditions: ref de Jong et al. 2009; cited from earlier work
[8] = test system: hESC-derived neural crest cells (NCC)
[9] = test system: mESC-derived neural stem cells (mESCn)
rat whole embryo culture = test system: rat whole embryo culture; design: method as in Robinson et al. (2012); conditions: 48 hours, ref Robinson et al. (2012), cited from earlier work
[10] = test system: neural embryonic stem cell test (ESTn); design: method as in Theunissen et al. (2012); conditions: ref Theunissen et al. (2012); cited from earlier work
dopaminergic PC12 cells = test system: dopaminergic PC12 cells; design: method as in Heusinkveld et al. (2013); conditions: ref Heusinkveld et al. (2013); cited from earlier work
zebrafish embryos = test system: zebrafish embryos; design: method as in Hermsen et al. (2012); conditions: pericardial edema, malformations of head and heart; ref Hermsen et al. (2012); cited from earlier work
rat fetuses = test system: rat fetuses; design: method as in Machera 1995; conditions: cleft palate and hydrocephaly as most common malformations; ref Machera 1995; cited from earlier work
rats [11] = conditions: single dose, oral gavage, adult male Long-Evans rats; ref Crofton et al. (2011); cited from earlier work
[12] = 50 patients with Alzheimer's disease

N[C@@H](CC(=O)N1CCn2c(nnc2C(F)(F)F)C1)Cc1cc(F)c(F)cc1F [Sitagliptin]
Free conc. (FCC; free plasma concentration) [1]: 1200 nM | Clinical conc. (CC; total/maximal plasma concentration) [2]: 1900 nM | Binding to plasma proteins (plasma proteins; ref Herman et al. (2006a)): 38%

COC1=C2C[C@@H](C)C[C@H](OC)[C@H](O)[C@@H](C)/C=C(\C)[C@H](OC(N)=O)[C@@H](OC)/C=C\C=C(/C)C(=O)NC(=CC1=O)C2=O [Geldanamycin]
Effect on NCC migration in concentration-response study [3]: concentration-dependent effect | Clinical conc. (CC; total/maximal plasma concentration) [2]: 800 nM

Clc1cc(Cl)c(-c2cc(Cl)c(Cl)cc2Cl)cc1Cl [PCB-153]
Effect on NCC migration in concentration-response study [3]: concentration-dependent effect | DT concentration [4]: 388 pM | Median cord serum concentration ([5]; cohort of 7990 women, ref Govarts et al. (2012)): 140 ng/l and 388 pM | Maternal serum concentration ([5]; ref Covaci et al. (2002)): 670 ± 350 pg/mL | Reduction of birth weight (fetal growth): 150 g

CCCc1nn(C)c2c(=O)[nH]c(-c3cc(S(=O)(=O)N4CCN(C)CC4)ccc3OCC)nc12 [Sildenafil]
Free conc. (FCC; free plasma concentration) [1]: 11.0 nM | Plasma protein binding (plasma proteins; ref Purvis et al. (2002)): approximately 95%

Brc1ccc(Oc2cc(Br)c(Br)cc2Br)c(Br)c1 [PBDE-99, 2,2′,4,4′,5-pentabromodiphenyl ether]
Dose causing hyperactivity and impaired spermatogenesis in offspring (rats [6]): 0.11 µmol/kg | Effect on NCC migration in concentration-response study [3]: concentration-dependent effect | Geometric mean concentration in maternal serum ([5]; converted): 25 ng/l and 44 pM | Average concentration in breast milk ([5]; converted): 1 ng/l and 1.8 pM | Geometric mean concentration in maternal serum [5]: 4.5 ng/g | Average concentration in breast milk [5]: 0.27 ng/g lw

COC(=O)c1ccc2c(c1)NC(=O)/C2=C(\Nc1ccc(N(C)C(=O)CN2CCN(C)CC2)cc1)c1ccccc1 [Nintedanib/ BIBF 1120, Nintedanib]
Free conc. (FCC; free plasma concentration) [1]: 70.8 nM | Clinical conc. (CC; total/maximal plasma concentration) [2]: 74.2 nM

COCC(=O)O [Methoxyacetic acid]
BMC5 (whole embryo culture): 1.6 mM | DT concentration [4]: 7.5e+09 pM | Estimated human blood concentration ([5]; due to permitted occupational EGME exposure, ref Welsch 2005): approximately 60 μM | Human exposure concentration ([5]; head of Fig. S4 entry, ref studies in Fig. S4): 60 µM | BMC50 [7]: 2.4 mM

C/C(O)=C(\C#N)C(=O)Nc1ccc(C(F)(F)F)cc1 [Teriflunomide]
Free conc. (FCC; free plasma concentration) [1]: 54.0 nM | Clinical conc. (CC; total/maximal plasma concentration) [2]: 10800 nM | Portion of free teriflunomide (plasma proteins; almost constant, ref not given): 0.5% | Bound to plasma proteins (plasma proteins; primarily to albumin, no unit and ref not given): > 99.3

CN(C)CCCN1c2ccccc2Sc2ccc(Cl)cc21 [Chlorpromazine]
Bound to plasma protein albumin (plasma proteins; plasma): around 85%

COCCCOc1cc(C[C@@H](C[C@H](N)[C@@H](O)C[C@H](C(=O)NCC(C)(C)C(N)=O)C(C)C)C(C)C)ccc1OC [Aliskiren]
Free conc. (FCC; free plasma concentration) [1]: 166 nM | Clinical conc. (CC; total/maximal plasma concentration) [2]: 326.5 nM | Protein binding (plasma proteins; moderate, ref Vaidyanathan et al. 2008): 47-51%

Erythropoietin
Clinical conc. (CC; total/maximal plasma concentration) [2]: 0.3 nM

C[C@]12CC[C@H](O)CC1=CC[C@@H]1[C@@H]2CC[C@]2(C)C(c3cccnc3)=CC[C@@H]12 [Abiraterone]
Free conc. (FCC; free plasma concentration) [1]: 7.8 nM | Highest non-cytotoxic conc. in HEK293 (HEK293 cells; human): 2.0 µM | Concentration for hit finding in NCC (highest non-cytotoxic concentration in the UKN2 test system) ([8]; human): 2000 nM | Highest non-cytotoxic conc. in mESCn ([9]; mouse): 0.97 µM | Effect on NCC migration in concentration-response study [3]: concentration-dependent effect | Clinical conc. (CC; total/maximal plasma concentration) [2]: 647.3 nM | Bound to plasma proteins (plasma proteins; ref Gurav et al. (2012)): > 98.8%

CC(C1CC1)C(O)(Cn1cncn1)c1ccc(Cl)cc1 (stereo not drawn) [Cyproconazole]
Malformations (rat whole embryo culture; 1 mM): 50% | Malformations (rat whole embryo culture; 1.7 mM): 100% | Concentration reducing cell viability to 80% [10]: 117600 nM | Inhibitory concentration on depolarization-evoked intracellular calcium concentration (dopaminergic PC12 cells): 65 µM | Effect on NCC migration in concentration-response study [3]: concentration-dependent effect | Concentration increasing teratogenic effects (zebrafish embryos): 65000 nM | DT concentration [4]: 6.5e+07 to 1.18e+08 pM | Suggested NOEL (rat fetuses): 20 mg/kg

Neuregulin
Clinical conc. (CC; total/maximal plasma concentration) [2]: 6300 nM

O=C(Nc1c(Cl)cncc1Cl)c1ccc(OC(F)F)c(OCC2CC2)c1 [Roflumilast]
Free conc. (FCC; free plasma concentration) [1]: 0.2 nM | Clinical conc. (CC; total/maximal plasma concentration) [2]: 18.0 nM

CC(C)(C)C(O)C(Oc1ccc(Cl)cc1)n1cncn1 (stereo not drawn) [triadimenol]
Dose causing transient CNS toxicity (hyperactivity, stereotyped behavior) (rats [11]): 50 mg/kg

O=C(NC[C@H]1CN(c2ccc(N3CCOCC3=O)cc2)C(=O)O1)c1ccc(Cl)s1 [Rivaroxaban]
Free conc. (FCC; free plasma concentration) [1]: 41.4 nM | Clinical conc. (CC; total/maximal plasma concentration) [2]: 689.6 nM | Unbound fraction in plasma (plasma proteins; PBPK model study, ref Grillo et al. (2012)): 6%

CCC[C@H](NC(=O)[C@@H]1[C@H]2CCC[C@H]2CN1C(=O)[C@@H](NC(=O)[C@@H](NC(=O)c1cnccn1)C1CCCCC1)C(C)(C)C)C(=O)C(=O)NC1CC1 [Telaprevir]
Free conc. (FCC; free plasma concentration) [1]: 1600 nM | Clinical conc. (CC; total/maximal plasma concentration) [2]: 5100 nM

Cc1ccc(NC(=O)c2ccc(CN3CCN(C)CC3)cc2)cc1Nc1nccc(-c2cccnc2)n1 [Imatinib]
Concentration for hit finding in NCC (highest non-cytotoxic concentration in the UKN2 test system) ([8]; human): 5000 nM | Effect on NCC migration in concentration-response study [3]: concentration-dependent effect

Nc1ccc(S(=O)(=O)Nc2ncccn2)cc1 [Sulfadiazine]
Highest non-cytotoxic conc. in HEK293 (HEK293 cells; human): 100.0 µM | Concentration for hit finding in NCC (highest non-cytotoxic concentration in the UKN2 test system) ([8]; human): 50000 nM | Highest non-cytotoxic conc. in mESCn ([9]; mouse): > 50.0 µM | Clinical concentration range (average Cmax) ([2]; human, in vivo): 50-110 | Cmax ([2]; human, in vivo): 200000 to 440000 nM | Degree of protein binding (plasma proteins; human): 50%

CC[C@H](C)[C@@H]1NC(=O)[C@H](Cc2ccc(O)cc2)NC(=O)[C@@H](N)CSSC[C@@H](C(=O)N2CCC[C@H]2C(=O)N[C@@H](CC(C)C)C(=O)NCC(N)=O)NC(=O)[C@H](CC(N)=O)NC(=O)[C@H](CCC(N)=O)NC1=O [Oxytocin]
Free conc. (FCC; free plasma concentration) [1]: 2.0 nM | Highest non-cytotoxic conc. in HEK293 (HEK293 cells; 48 h): > 0.1 µM | Concentration for hit finding in NCC (highest non-cytotoxic concentration in the UKN2 test system) ([8]; 48 h): 100 nM | Highest non-cytotoxic conc. in mESCn ([9]; 48 h): > 100.0 µM | Clinical conc. (CC; total/maximal plasma concentration) [2]: 2.0 nM | Binding state in plasma (plasma proteins; ref Fabian et al. (1969)): unbound

B1: granulocyte colony-stimulating factor (protein, UniProt P09919 31-207, looked up)
Granulocyte …: TPLGPASSLPQSFLLKCLEQVRKIQGDGAALQEKLVSECATYKLCHPEELVLLGHSLGIPWAPLSSCPSQALQLAGCLSQLHSGLFLYQGLLQALEGISPELGPTLDTLQLDVADFATTIWQQMEELGMAPALQPTQGAMPAFASAFQRRAGGVLVASHLQSFLEVSYRVLRHLAQP
Clinically relevant concentration ([1]; calculated from Laske et al. (2009) data): 25 pg/mL | Plasma concentration range ([2]; 50 healthy controls): 5 to 80 pg/mL | Plasma concentration, average ([2]; 50 healthy controls): ~ 28 pg/ml | Plasma concentration range [2, 12]: 10 to 40 pg/mL | Plasma concentration, average [2, 12]: ~ 20 pg/ml | Clinical conc. (CC; total/maximal plasma concentration) [2]: 0.0013 nM
